From US20240252693A1, “FOLATE RECEPTOR-TARGETED RADIOTHERAPEUTIC AGENTS AND THEIR USE” (Novartis AG, priority 2021, published 2024)

Experiments:
[1] = target: T1, folate receptor (FR) on KB cells (Homo sapiens, UniProt P15328); assay: Relative affinity assay: displacement of [3H]folic acid from FR-positive KB cells; type: binding; settings: inverse molar ratio to displace 50% of 100 nmol/L [3H]FA, 1 h 37 °C, folic acid set to 1
T1 construct: endogenous in cells; host or cells: KB cells
Experimental: FR-positive KB cells were seeded in 24-well Falcon plates and allowed to form adherent monolayers (>90% confluent) overnight in FDRPMI/10% FCS media. Spent incubation medium was replaced with FFRPMI supplemented with 10% HIFCS and containing 100 nmol/L of [^3H]FA in the absence and presence of increasing concentrations of unlabeled folic acid (FA), Compound 34, Compound 37, or non-targeted control (Table 14). Cells were incubated for 1 h at 37° C. and then rinsed three times with 0.5 mL PBS (phosphate-buffered saline). Five hundred microliters of 1% SDS (sodium dodecyl sulfate) in PBS were added to each well; after 5 min, cell lysates were collected, transferred to individual vials containing 5 mL of scintillation cocktail, and then counted for radioactivity. Cells exposed to only the [^3H]FA in FFRPMI (no competitor) were designated as negative controls, whereas cells exposed to the [^3H]FA plus 1 mmol/L unlabeled FA served as positive controls. Disintegrations per minute (DPM) measured in the latter samples (representing nonspecific binding of label) were subtracted from the DPM values from all samples. Relative affinities were defined as the inverse molar ratio of compound required to displace 50% of [^3H]FA bound to FR on KB cells, and the relative affinity of FA for the FR was set to 1.

[2] = target: T2, folate receptors on FR-positive KB cells (Homo sapiens, UniProt P15328); assay: Binding affinity assay: direct binding of 177Lu-labelled compounds to FR-positive KB cells; settings: 177Lu-labelled compound, 1 h 37 °C
T2 construct: endogenous in cells; host or cells: KB cells
T2 sequence (P15328 25-234): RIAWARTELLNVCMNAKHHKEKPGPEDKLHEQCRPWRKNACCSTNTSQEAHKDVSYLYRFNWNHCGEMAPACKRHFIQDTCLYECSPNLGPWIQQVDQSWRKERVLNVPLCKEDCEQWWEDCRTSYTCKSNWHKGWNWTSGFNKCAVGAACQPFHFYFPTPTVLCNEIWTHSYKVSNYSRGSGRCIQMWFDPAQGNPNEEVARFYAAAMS
Experimental: FR-positive KB cells and FR-negative A549 cells were seeded in 24-well Falcon plates and allowed to form adherent monolayers (>90% confluent) overnight in FFRPMI/HIFCS. Spent incubation medium was replaced with FFRPMI supplemented with 10% HIFCS containing increasing concentrations (0.78 to 100 nmol/L) of [^177Lu]-Compound 34, [^177Lu]-Compound 37, or [^177Lu]-(non-targeted control) in the absence and presence of 10 μM FA. Cells were incubated for 1 h at 37° C. and then rinsed three times with 0.5 mL PBS. Five hundred microliters of 1% NaOH in PBS were added to each well; after 5 min, cell lysates were collected, transferred to individual tubes, and then counted for radioactivity on a gamma counter. Counts per minute (CPM) values were measured in all samples and plotted against concentration of [^177Lu]-Compound 34, [1^77Lu]-Compound 37, or [^177Lu]-(non-targeted control) using GraphPad Prism 8 program. Dissociation constants (Kd) was calculated using a GraphPad's nonlinear regression one site binding method.

[3] = tested on: FR-positive M109 tumor; assay: In vivo biodistribution in mice bearing M109 tumors; settings: 177Lu chelate
From the text: Four- to eight-week-old female nu/nu mice or NSG mice (Harlan Sprague-Dawley, Inc.) were maintained on a standard 12-h light-dark cycle and fed ad libitum with Folate deficient purified rodent diet (TestDiet #AIN-93G) for the duration of the experiment. FR-positive M109 or FR-negative HT29 tumor cells were inoculated in the subcutis dorsal medial area of mice. The biodistribution studies were typically performed when tumors were approximately 400-800 mm^3 in volume. Mice were divided into groups of three, and freshly prepared test articles and competitors were injected through the lateral tail vein in a volume of 100 μL/10 g of PBS. Four h to six days post radioactive-agent dose administration, mice were euthanized and organs (blood, heart, lungs, liver, spleen, and kidneys, intestine, stomach, muscle, brain and tumor) were collected, weighed and placed inside counting vials. Each tissue sample was counted for the activities of radioelement using a gamma-counter. Samples of the injectate were used as decay correction standards. Final bar graphs are expressed as % injected dose per gram of tissue or tumor to kidney ratio, or % tumor to (kidneys+liver+spleen) ratio.

[4] = tested on: KB tumor; assay: In vivo biodistribution in mice bearing KB tumors; settings: 225Ac chelate, 30 nmol/kg
[5] = tested on: FR-positive IGROV-1 tumor; assay: In vivo biodistribution in Athymic Nude-Foxn1nu mice bearing IGROV-1 tumors; settings: 177Lu chelate, 600 nmol/kg, 24 h post injection, mean ± SD
Experimental: Six week old female Athymic Nude-Foxn1nu mice (Envigo) were maintained on a standard 12-h light-dark cycle and fed ad libitum with folate deficient purified rodent dies (SSniff #E15321-147) for the duration of the experiment. FR-positive IGROV-1 tumor cells were inoculated in the subcutis dorsal medial area of mice. The biodistribution studies were […]. Mice were divided into groups of four, and freshly prepared test articles were injected through the lateral tail vein in a volume of 100 μL/10 g of PBS. Four h to 24 h post radioactive agent dose administration, mice were euthanized and organs (blood, bone, bowel (large and small), brain, heart, kidneys, liver, lungs, salivary glands, skeletal muscle, skin, spleen, stomach and tumor) were collected, weight and placed inside counting vials. Each tissue sample was counted for the activities of radioelement using a gamma-counter. Samples of the injective were used as decay correction standards. Final bar graph is expressed as % injected dose per gram of tissue FIG. 9.

[6] = tested on: MDA-MB-231 tumors; assay: In vivo anti-tumor activity in mice bearing MDA-MB-231 tumors; settings: 300 nmol/3.7 GBq/kg, female nu nu mice, n=5
Experimental: (§1) Four- to eight-week-old female nu nu mice or NSG mice (Harlan Sprague-Dawley, Inc.) were maintained on a standard 12-h light-dark cycle and fed ad libitum with folate deficient purified rodent diet (TestDiet #AIN-93G). FR-positive (human breast adenocarcinoma) or IGROV (human ovarian adenocarcinoma) or KB (human cervical adenocarcinoma) tumor cells were inoculated subcutaneously at the right flank of each mouse. Mice were dosed with [^177Lu]-Compound 34, [^177Lu]-Compound 37, or [^225Ac]-Compound 5 through the lateral tail vein under sterile conditions in a volume of 100 μL/10 g of phosphate-buffered saline (PBS). Growth of each s.c. tumor was followed by measuring the tumor two times per week. Tumors were measured in two perpendicular directions using Vernier calipers, and their volumes were calculated as 0.5×L×W^2, where L=measurement of longest axis in mm and W=measurement of axis perpendicular to L in mm. A stable disease (SD) was defined as volume reduction of <50% and increase of <50% in two weeks. A partial response (PR) was defined as volume regression >50% but with measurable tumor (>2 mm^3) remaining at all times. Complete response (CR) was defined as a disappearance of measurable tumor mass (<2 mm^3) at some point within the study. Cures were defined as CRs without tumor regrowth within the study time frame. As a general measure of gross toxicity, changes in body weights were determined on the same schedule as tumor volume measurements.

[7] = Stability of [177Lu]-Compound 34 solution, radiochemical purity by radio-HPLC; type: physicochemical
Experimental: Preparation of [^177Lu]-Compound 34: Compound 34 solution (250 μL, 2 mM) was added to a vial. Gentisic acid/acetate buffer pH 5.5 (800 μL) and ^177LuCl3 solution (170 μL, 184 mCi) were added to the vial. The vial was placed in a shielded heating block and heated at 95° C. for 15 min. After cooling to room temperature, 7 mL of DTPA/sodium ascorbate solution pH 7.4 was added to the labeling mixture. The final solution contains 184 mCi of ^177Lu, 0.6 mg of Compound 34, 8 mg of gentisic acid, 1.5 mg of DTPA, 350 mg of sodium ascorbate.
[^177Lu]-Compound 34 solution was stored at room temperature and in a refrigerator. The radiochemical purities were monitored using radio-HPLC. [^177Lu]-Compound 34 was stable up to 6 days.

[8] = Body weight as measure of gross toxicity in the MDA-MB-231 anti-tumor study; type: in vivo; settings: 300 nmol/3.7 GBq/kg, female nu nu mice bearing MDA-MB-231 tumors
From the text: as §1, with “Mice were dosed with [^177Lu]-Compound 34, [^177Lu]-Compound 37, or [^225Ac]-Compound 5 through the lateral tail vein under sterile conditions in a volume of 100 μL/10 g of phosphate-buffered saline (PBS).” left out

T1 sequence (P15328 25-234): as above

| SMILES | Relative Binding Affinity [1] | T/Kid ([3]; 300 nmol/kg) | T/Liv ([3]; 300 nmol/kg) | T/spl ([3]; 300 nmol/kg) | T^2/kid ([3]; 300 nmol/kg) | T/Kid [5] | T/Liv [5] | T/spl [5] | partial responses (PRs) [6] | Kd [2] | average weight of mice (tolerability) [8] | also measured |
| --- | --- | --- | --- | --- | --- | --- | --- | --- | --- | --- | --- | --- |
| O=C(O)CN1CCN(CC(=O)O)CCN([C@@H](CCC(=O)NC[C@H](NC(=O)c2ccc(NCc3ccc4ccccc4c3)cc2)C(=O)O)C(=O)O)CCN(CC(=O)O)CC1 [(non- targeted control), reference compound] | Non- binder |  |  |  |  |  |  |  |  |  |  | Direct Binding (Kd, nM) [2]: Non- binder |
| Nc1nc2ncc(CNc3ccc(C(=O)N[C@@H](CCCCNC(=O)[C@H](Cc4ccc5ccccc5c4)NC(=O)[C@H]4CC[C@H](CNC(=O)CN5CCN(CC(=O)O)CCN(CC(=O)O)CCN(CC(=O)O)CC5)CC4)C(=O)O)cc3)nc2c(=O)[nH]1 [Compound 23] |  | 0.37 +/− 0.11 | 25.8 +/− 2.4 | 108 +/− 12.7 | 1.47 +/− 0.66 |  |  |  |  |  |  | T/Kid [4]: 0.08 +/− 0.03; T/Liv [4]: 1.8 +/− 0.7; T/spl [4]: 10.1 +/− 4.7 |
| Nc1nc2ncc(CNc3ccc(C(=O)N[C@@H](CCCCNC(=O)C[C@H](NC(=O)[C@H](Cc4ccc5ccccc5c4)NC(=O)CNC(=O)CN4CCN(CC(=O)O)CCN(CC(=O)O)CCN(CC(=O)O)CC4)C(=O)O)C(=O)O)cc3)nc2c(=O)[nH]1 [Compound 34, 2,2′,2″-(10-((3S,11S,14S)-1-(4-(((2-amino-4-oxo-3,4-dihydropteridin-6-yl)methyl)amino)phenyl)-3,11-dicarboxy-14-(naphthalen-2-ylmethyl)-1,9,13,16,19-pentaoxo-2,8,12,15,18-pentaazaicosan-20-yl)-1,4,7,10-tetraazacyclododecane-1,4,7-triyl)triacetic acid] | 2.21 | 0.55 +/− 0.1 | 25.3 +/− 6.6 | 98.3 +/− 25.1 | 1.7 +/− 0.9 | 0.29 +/− 0.05 | 1.53 +/− 0.57 | 0.49 +/− 0.07 |  |  |  | T/Kid ([3]; 600 nmol/kg): 0.80 +/− 0.18; T/Liv ([3]; 600 nmol/kg): 29.1 +/− 5.4; T/spl ([3]; 600 nmol/kg): 92.8 +/− 5.4; T^2/kid ([3]; 600 nmol/kg): 1.97 +/− 0.7 |
| Nc1nc2ncc(CNc3ccc(C(=O)N[C@@H](CCCCNC(=O)COc4ccc(C[C@H](NC(=O)CNC(=O)CN5CCN(CC(=O)O)CCN(CC(=O)O)CCN(CC(=O)O)CC5)C(=O)O)cc4)C(=O)O)cc3)nc2c(=O)[nH]1 [Compound 37, 2,2′,2″-(10-(2-((2-(((S)-2-(4-(2-(((S)-5-(4-(((2-amino-4-oxo-3,4-dihydropteridin-6-yl)methyl)amino)benzamido)-5-carboxypentyl)amino)-2-oxoethoxy)phenyl)-1-carboxyethyl)amino)-2-oxoethyl)amino)-2-oxoethyl)-1,4,7,10-tetraazacyclododecane-1,4,7-triyl)triacetic acid] | 1.53 | 0.46 +/− 0.14 | 13.2 +/− 4.5 | 61.9 +/− 14.4 | 1.51 +/− 0.57 | 0.15 +/− 0.03 | 1.37 +/− 0.37 | 0.49 +/− 0.17 |  |  |  |  |
| Nc1nc2ncc(CNc3ccc(C(=O)N[C@@H](CCCCNC(=O)C[C@H](NC(=O)[C@H](Cc4ccc5ccccc5c4)NC(=O)CNC(=O)CN4CCN(CC(=O)O)CCN(CC(=O)O)CCN(CC(=O)O)CC4)C(=O)O)C(=O)O)cc3)nc2c(=O)[nH]1 [[^177Lu]-Compound 34, metal not drawn] |  |  |  |  |  |  |  |  | five | 7.21 nM | did not lose any significant weight | Radiochemical purity (%) ([7]; 0° C., 3 days): 97.19%; Radiochemical purity (%) ([7]; 0° C., 6 days): 96.58%; Radiochemical purity (%) ([7]; 0° C., initial): 97.14%; Radiochemical purity (%) ([7]; Room temperature (24° C.), 3 days): 96.77%; Radiochemical purity (%) ([7]; Room temperature (24° C.), 6 days): 95.89%; Radiochemical purity (%) ([7]; Room temperature (24° C.), initial): 97.14%; time over which the solution was stable ([7]; stored at room temperature and in a refrigerator, radio-HPLC): up to 6 days |
| Nc1nc2ncc(CNc3ccc(C(=O)N[C@@H](CCCCNC(=O)COc4ccc(C[C@H](NC(=O)CNC(=O)CN5CCN(CC(=O)O)CCN(CC(=O)O)CCN(CC(=O)O)CC5)C(=O)O)cc4)C(=O)O)cc3)nc2c(=O)[nH]1 [[^177Lu]-Compound 37, metal not drawn] |  |  |  |  |  |  |  |  | four | 8.99 nM | did not lose any significant weight | complete response (CR) [6]: one |
